Measured values published in patent publication US11090364B2, “Conjugates of a pharmaceutical agent and a moiety capable of binding to a glucose sensing protein” (SANOFI, priority 2016, dated 2021).
Like-named read-outs stand apart in the source and are kept apart here.

How the values were obtained:
[1] = tested on: A2780 Human Carcinoma Cells; experiment: Glucose displacement assay (ATP measurement, CellTiter-Glo); format: cell-based
Description: 2. Glucose Displacement Assay (ATP Measurement)
30.000 A2780 Human Carcinoma Cells are seeded per well in a Greiner 96-well plate. Cells are expanded and cultured in RPMI 1640 medium+GlutaMAX® with 10% FCS and 11 mM glucose, at 37° C. with 5% CO2. After 44 h, culture media is changed and washed once with PBS to starvation media consisting of RPMI 1640 medium with 1% FCS without glucose for 2 hours. Cells are then washed with KRB buffer, followed incubation for 20 min at 37° C. of the treatment mix consisting of: 60 μL KRB buffer/well with 10 μL of compound or DMSO 10×. 10 μl of rotenone is added to the mix to a final concentration of 0.5 μM. Cell plates are left for 2 min at room temperature. 20 μL of different glucose concentrations are added to the mix—typically 0.1 to 20 mM range -. Cells are incubated for another 15 min at 37° C., before measuring ATP with the CellTiter-Glo® Assay, under manufacturer's guidance, but without the equilibration step at room temperature for 30 min. In brief, 100 μl of Cell-Titer-Glo® Reagent is added to the wells containing already 100 μl of the previous reaction mix. Plates are mixed for 2 min at 800 rpm, followed by incubation at room temperature for 10 min to stabilize the luminescent signal. Luminescence is then recorded with the Tekan Ultra Evolution reader.

[2] = tested on: erythrocytes; experiment: Erythrocyte dialysis assay (6-NBD-Glc, Rapid Equilibrium Dialysis); format: binding, rat; conditions: for Fluorescence intensity in buffer compartiment, 1:1 Dilution k^off / Fluorescence intensity in buffer compartiment, 1:1 Dilution k^on: 6-NBD-Glc 25 μM; for Fluorescence intensity in buffer compartiment, 6-NBD-Glc [50 μM]: absence of glucose
Source text: 3. Erythrocyte Dialysis Assay
Here 6-NBD-Glc or alternatively 2-NBD-Glc was used in dialysis based competition experiments.
Freshly isolated heparinized rat blood samples were immideately diluted (1:5) in PBS buffer to generate a stable stock solution. This stock solution was further diluted (1:1 or 1:3) for the following dialysis experiments in Rapid Equilibrium Dialysis (RED) devices (Thermo Scientific Pierce).
The aforementioned stock solution was further diluted (1:1 or 1:3 respectively) and added to the dialysis compartiment of a RED device. In parallel stock solution was diluted (1:1) with buffer containing 6 NBD Glc (25 μM).
Dialyses was started by addition of 6 NBD Glc (25 μM) in PBS Buffer (k^on) or pure PBS buffer (ko^off) respectively into the buffer compartiment. Aliquots (20 μl) were taken after defined time intervals from the buffer compartiment and fluorescence was measured in a UV plate reader (Thermovarioskan, Thermo).
As a control, free diffusion of 6-NBD-Glc (25 μM) in PBS buffer vs pure buffer was measured.
Glucose dependency was determined following the protocol described above, comparing the following solutions: 6 NBD-Glc (100 μM), 6 NBD-Glucose (100 μM)+Glucose 20 mM. Data are shown in the next table
Example 102 was investigated in a competition experiment following the same protocol using a 6-NBD-Glc solution (100 μM) in comparison to 6 NBD-Glucose (100 μM)+Example 102 (50 μM).

[3] = tested on: HepG2 cells; experiment: HepG2 assay: 14C 2-deoxy-D-glucose transport into HepG2 cells; format: cell-based; conditions: Homo sapiens, test compound 100 μM
Description: For measurement of ^14C 2-deoxy-D-glucose transport into HepG2 cells, cells were seeded in collagen treated 96-well plates (Cytostar-T Plates Perkin Elmer, 40.000 cells/200 μ/well) in medium complete (MEM W/GLUT-I, EARLES (Gibco #41090) /NEAA/PS/10% FCS) and grown for 48 hours. After starvation for 2 hours with MEM W/GLUT-I, EARLES (Gibco #41090)/NEAA/no serum 100 μl/well and washing twice with 200 μL KRB buffer, cells were stimulated in a dose dependent manner by adding 20 μL of test compound dilution 0-750 μM (7.5 times higher concentration than final) or 20 μL of 188 μM Cytochalasin B solution as negative control, to 80 μL KRB buffer and incubated for 30 minutes. After compound stimulation, the transport of ^14C 2-deoxy-D-glucose was started by adding of 50 μL ^14C 2-deoxy-D-glucose solution (250 μM 2-deoxy-D-glucose cold and 15 μM ^14C 2-deoxy-D-glucose 0.13 μCi/well) for 20 minutes. Transport was stopped by adding 50 μL/well 40 μM Cytochalasin B solution. Plates were measured in a 96-well Wallac Microbeta device. The cpm (counts per minute) values were used to determine the % inhibition values for the test compounds within each experiment, which then are averaged over the number of experiments performed.

Q: With “Methyl-2-O-(3-chloro-3′-methoxy-4-phenoxyphenylcarbonyl)-α-D-glucopyranoside [Example 124]” as the molecule, how does the IC50 ([1]; 10 mM Gluc, read-out: IC50 @ 10 mM Gluc) read?
A: > 100 µM

Q: And the IC50 ([1]; read-out: IC50)?
A: 33.2 µM

Q: For `COc1cc(C(=O)OC[C@H]2OC(O)[C@H](O)[C@@H](O)[C@@H]2O)cc(Cl)c1Oc1ccccc1` (stereo partly shown) [Example 138], which IC50 ([1]; Homo sapiens, 10 mM Gluc, read-out: IC50 @ 10 mM Gluc) is on record?
A: > 100 µM

Q: And the IC50 ([1]; Homo sapiens, read-out: IC50)?
A: 8.37 µM

Q: Which “Fluorescence intensity in buffer compartiment, 1:1 Dilution k^off” value (shortened to “Fluorescence intensity … 1:1 Dilution k^off”) ([2]; 0 min) does the source give for `O=[N+]([O-])c1ccc(NC[C@H]2OC(O)[C@H](O)[C@@H](O)[C@@H]2O)c2nonc12` (stereo partly shown) [Example 6-NBD-Glc, 6-(N-(7-Nitrobenz-2-oxa-1,3-diazol-4-yl)amino)-6-Deoxyglucose] here?
A: 0 AU

Q: What about the “Fluorescence intensity in buffer compartiment, 1:1 Dilution k^on” value (shortened to “Fluorescence intensity … 1:1 Dilution k^on”) ([2]; 0 min) of the same molecule?
A: 55 AU

Q: What about the “Fluorescence intensity in buffer compartiment, NBD-Glc [50 μM] + Glc [10 mM]” value (from here on “Fluorescence intensity … [10 mM]”) ([2]; 0 min) of the same molecule?
A: 0 AU

Q: And the “Fluorescence intensity in buffer compartiment, 6-NBD-Glc [50 μM]” value (“Fluorescence intensity … 6-NBD-Glc [50 μM]” for short) ([2]; 0 min)?
A: 0 AU

Q: And the “Fluorescence intensity … [10 mM]” value ([2]; 15 min)?
A: 7.2 AU

Q: And the “Fluorescence intensity … 6-NBD-Glc [50 μM]” value ([2]; 15 min)?
A: 7.5 AU

Q: And the “Fluorescence intensity … 1:1 Dilution k^off” value ([2]; 30 min)?
A: 3.4 AU

Q: And the “Fluorescence intensity … 1:1 Dilution k^on” value ([2]; 30 min)?
A: 50.6 AU

Q: And the “Fluorescence intensity … [10 mM]” value ([2]; 30 min)?
A: 11.9 AU

Q: And the “Fluorescence intensity … 6-NBD-Glc [50 μM]” value ([2]; 30 min)?
A: 10.6 AU

Q: What about the “Fluorescence intensity … 1:1 Dilution k^off” value ([2]; 60 min) of the same molecule?
A: 6.5 AU

Q: And the “Fluorescence intensity … 1:1 Dilution k^on” value ([2]; 60 min)?
A: 45.1 AU

Q: What about the “Fluorescence intensity … [10 mM]” value ([2]; 60 min) of the same molecule?
A: 17 AU

Q: And the “Fluorescence intensity … 6-NBD-Glc [50 μM]” value ([2]; 60 min)?
A: 11.1 AU

Q: And the “Fluorescence intensity … 1:1 Dilution k^off” value ([2]; 90 min)?
A: 12 AU

Q: And the “Fluorescence intensity … 1:1 Dilution k^on” value ([2]; 90 min)?
A: 33 AU

Q: What about the “Fluorescence intensity … [10 mM]” value ([2]; 90 min) of the same molecule?
A: 18.5 AU

Q: What about the “Fluorescence intensity … 6-NBD-Glc [50 μM]” value ([2]; 90 min) of the same molecule?
A: 14.9 AU

Q: What about the “Fluorescence intensity … 1:1 Dilution k^off” value ([2]; 120 min) of the same molecule?
A: 16.1 AU

Q: What about the “Fluorescence intensity … 1:1 Dilution k^on” value ([2]; 120 min) of the same molecule?
A: 34 AU

Q: What about the “Fluorescence intensity … [10 mM]” value ([2]; 120 min) of the same molecule?
A: 20.3 AU

Q: What about the “Fluorescence intensity … 6-NBD-Glc [50 μM]” value ([2]; 120 min) of the same molecule?
A: 15.8 AU

Q: And the “Fluorescence intensity … [10 mM]” value ([2]; 180 min)?
A: 22.5 AU

Q: What about the “Fluorescence intensity … 6-NBD-Glc [50 μM]” value ([2]; 180 min) of the same molecule?
A: 16 AU

Q: And the “Free concentration of 6-NBD-Glc in presence of Glc [10 mM]” value ([2]; Glc 10 mM versus absence of glucose)?
A: increased

Q: What does the source list for `OC1O[C@H](CN2CCN(c3ccc(Cl)cc3)CC2)[C@H](O)[C@H](O)[C@H]1O` (stereo partly drawn) [Example 102, (3R,4S,5R,6R)-6-[[4-(4-Chlorophenyl)piperazin-1-yl]methyl]tetrahydropyran-2,3,4,5-tetrol]?
A: Fluorescence intensity of 6-NBD-Glc in competition with Example 102 [25 μM] ([2]; 0 min, competition with 6-NBD-Glc): 0 AU; Fluorescence intensity of 6-NBD-Glc in competition with Example 102 [25 μM] ([2]; 15 min, competition with 6-NBD-Glc): 4.9 AU; Fluorescence intensity of 6-NBD-Glc in competition with Example 102 [25 μM] ([2]; 30 min, competition with 6-NBD-Glc): 11.1 AU; Fluorescence intensity of 6-NBD-Glc in competition with Example 102 [25 μM] ([2]; 60 min, competition with 6-NBD-Glc): 12.5 AU; Fluorescence intensity of 6-NBD-Glc in competition with Example 102 [25 μM] ([2]; 90 min, competition with 6-NBD-Glc): 19.3 AU; Fluorescence intensity of 6-NBD-Glc in competition with Example 102 [25 μM] ([2]; 120 min, competition with 6-NBD-Glc): 25.1 AU; Fluorescence intensity of 6-NBD-Glc in competition with Example 102 [25 μM] ([2]; 180 min, competition with 6-NBD-Glc): 32.1 AU; Slope of fluorescence intensity vs time in comparison to control ([2]; competition with 6-NBD-Glc): clear increase in the slope

Q: “6-Desoxy-6-(3-undecenyloxypheny)-4-piperazin-1-yl-D-galactopyranose [Example 141]” was tested. Which IC50 ([1]; read-out: IC50) did it give?
A: 84.8 µM

Q: `CC(=O)O[C@@H]1OC(CN2CCN(C/C=C/c3ccccc3)CC2)=C[C@H](OC(C)=O)[C@H]1OC(C)=O` [Example 46, [(2S,3R,4S)-2,3-Diacetoxy-6-[[4-[(E)-cinnamyl]piperazin-1-yl]methyl]-3,4-dihydro-2H-pyran-4-yl] acetate] was tested. Which inhibition at 100 µM [3] did it give?
A: 8.76%

Q: For `CC(=O)O[C@@H]1OC(CN2CCN(c3ccc(Cl)cc3)CC2)=C[C@H](OC(C)=O)[C@H]1OC(C)=O` [Example 48, [(2S,3R,4S)-2,3-Diacetoxy-6-[[4-(4-chlorophenyl)piperazin-1-yl]methyl]-3,4-dihydro-2H-pyran-4-yl] acetate], which inhibition at 100 µM [3] is on record?
A: 28.8%

Q: Which inhibition at 100 µM [3] does the source give for `COC(=O)c1ccc(-c2cn([C@H]3C(O)O[C@H](CO)[C@@H](O)[C@@H]3O)nn2)cc1` (stereo partly drawn) [Example 58, Methyl 4-[1-[(3R,4R,5S,6R)-2,4,5-trihydroxy-6-(hydroxymethyl)tetrahydropyran-3-yl]triazol-4-yl]benzoate] here?
A: 20%

Q: Which inhibition at 100 µM [3] does the source give for `CC(=O)O[C@@H]1OC(CN2CCN(Cc3ccc4c(c3)OCO4)CC2)=C[C@H](OC(C)=O)[C@H]1OC(C)=O` [Example 47, [(2S,3R,4S)-2,3-Diacetoxy-6-[[4-(1,3-benzodioxol-5-ylmethyl)piperazin-1-yl]methyl]-3,4-dihydro-2H-pyran-4-yl] acetate] here?
A: 13.8%

Q: `CCN1CCN(C(=O)[C@H]2O[C@@H](OC(C)=O)[C@H](OC(C)=O)[C@@H](OC(C)=O)[C@@H]2OC(C)=O)CC1` [Example 2, [(2S,3R,4S,5S,6S)-2,3,5-Triacetoxy-6-(4-ethylpiperazine-1-carbonyl)tetrahydropyran-4-yl] acetate] was tested. Which inhibition at 100 µM [3] did it give?
A: 6.5%
